{"source": "patent US10640533B2", "about": "“Epoxyketone compounds for enzyme inhibition” (CENTRAX INTERNATIONAL, INC., priority 2014, dated 2020)", "key": {"[1]": {"biological_target": "Constitutive 20S proteasome chymotrypsin-like (CT-L) activity (Homo sapiens (Human), UniProt P20618+P28074)", "experiment": "Constitutive 20S proteasome CT-L activity inhibition, fluorogenic substrate succinyl-Leu-Leu-Val-Tyr-AMC", "assay_type": "biochemical", "procedure": "(§1) Inhibition of the 20S proteasome can be determined by methods and assays known in the art, for example, as disclosed by Stein et al., Biochemistry (1996), 35, 3899-3908; by Lightcap et al., Clinical Chemistry, 2000, 46, 673-683; by Kisselev et al., Journal of Biological Chemistry. (2006), 281, 8582-8590 and in U.S. application Ser. No. 09/569,748. The chymotrypsin-like (CT-L), peptidylglutamyl peptide hydrolyzing (PGPH) and trypsin-like (T-L) activities of the 20S proteasome are measured with a fluorogenic substrate assay method using succinyl-Leu-Leu-Val-Tyr-AMC, Z-Leu-Leu-Glu-AMC and Boc-Leu-Arg-Arg-AMC, respectively, as the substrates in an assay buffer. The free fluorophore 7-Amino-4-methylcoumarin (AMC) after cleavage from the substrates is quantified using a fluorometer and activity of CT-L, PGPH and T-L of 20S proteasome is determined.\n(§2) Inhibition of the chymotrypsin-like (CT-L), peptidylglutamyl peptide hydrolyzing activity (PGPH), and trypsin-like (T-L) activities of the 20S proteasome in enzymatic assays were determined using succinyl-Leu-Leu-Val-Tyr-AMC (10 μmol/L), Z-Leu-Leu-Glu-AMC (10 μmol/L) and Boc-Leu-Arg-Arg-AMC (50 μmol/L), respectively, as the substrates with purified human 20S proteasome at 2, 4 and 8 nmol/L, respectively, in the assay buffer containing 25 mM HEPES (pH7.5), 0.5 mM EDTA, 0.002% sodium dodecyl sulfate (SDS) and 0.05% NP-40. Stock solutions of the 20S proteasome inhibitors disclosed herein were prepared in dimethyl sulfoxide (DMSO) and the final DMSO concentration in the assay mixture was 1%. Reaction was conducted at room temperature for one hour. Proteasome activity was measured based on detection of the fluorophore 7-Amino-4-methylcoumarin (AMC) after cleavage from the substrates with a plate-based spectrofluorometer."}, "[2]": {"biological_target": "Constitutive 20S proteasome trypsin-like (T-L) activity (Homo sapiens (Human), UniProt P49720+Q99436)", "experiment": "Constitutive 20S proteasome T-L activity inhibition, fluorogenic substrate Boc-Leu-Arg-Arg-AMC", "assay_type": "biochemical", "procedure": "as §1, §2"}, "[3]": {"biological_target": "Constitutive 20S proteasome peptidylglutamyl peptide hydrolyzing (PGPH) activity (Homo sapiens (Human), UniProt P28072+Q99436)", "experiment": "Constitutive 20S proteasome PGPH activity inhibition, fluorogenic substrate Z-Leu-Leu-Glu-AMC", "assay_type": "biochemical", "conditions": "purified human 20S proteasome, room temperature, one hour", "procedure": "as §1, §2"}, "[4]": {"system": "CT-L activity of the 20S proteasome in blood samples", "experiment": "Inhibition of proteasome CT-L activity in blood samples from dosed Balb/c mice", "assay_type": "in vivo", "conditions": "one hour after dosing, vs vehicle", "procedure": "(§3) The proteasome activity in the blood samples collected from mice administrated of the vehicle was considered as 100% (control group). The remaining activity was calculated by comparing the proteasome activity in the blood samples collected from mice administrated of a compound described herein via intravenous injection (IV) at 10 mg/kg or via oral gavage (PO) at 30 mg/kg to the control group.\n(§4) Balb/c mice were administered of either a vehicle (20% (w/v) hydroxypropyl-β-cyclodextrin in 10 mM sodium citrate at pH3.5), or a compound described herein at a tolerated dose via intravenous injection at 10 mg/kg or oral gavage at 30 mg/kg. One hour after dosing, whole blood samples were collected into tubes containing sodium heparin by cardiac puncture and centrifuged at 150×g for 5 minutes at 4° C. The resulting pellet was washed using ice-cold phosphate buffered saline (PBS) three times. […] The concentration of the blood lysate was measured by BCA method. […] The free AMC fluorescence was quantified using a 360/460 nm filter set in a fluorometer to measure the CT-L, PGPH or T-L activities of the 20S proteasome. Percent inhibition of the proteasome activity was calculated by comparing the samples collected from the mice administrated of a compound described herein to the samples collected from the mice administrated of the vehicle. […]"}, "[5]": {"biological_target": "20S Immunoproteasome trypsin-like (T-L) activity (Homo sapiens (Human), UniProt P40306+P49720)", "experiment": "20S immunoproteasome T-L activity inhibition, fluorogenic substrate Boc-Leu-Arg-Arg-AMC", "assay_type": "biochemical", "conditions": "purified human 20S proteasome, room temperature, one hour", "procedure": "as §1, §2"}, "[6]": {"experiment": "Aqueous solubility of the compounds", "assay_type": "physicochemical", "conditions": "50 mM citrate buffer, pH 4, aqueous buffer, thermodynamic from solid, 50 mM citrate pH4.0, 25° C.", "procedure": "To determine the solubility of the compounds, 1-5 mg of a compound was weighed into a vial. 1 mL of aqueous buffer (50 mM citrate at pH4.0) was added. The vial was shaken at 25° C. for 24 hours and then centrifuged for 10 min at 10000 rpm. The supernatant was filtered through a 0.45 μm membrane filter and analyzed for the concentration of the compound. In certain embodiments, the aqueous solubility of the compounds is described herein in Table 1."}, "[7]": {"biological_target": "20S Immunoproteasome chymotrypsin-like (CT-L) activity (Homo sapiens (Human), UniProt P20618+P28062)", "experiment": "20S immunoproteasome CT-L activity inhibition, fluorogenic substrate succinyl-Leu-Leu-Val-Tyr-AMC", "assay_type": "biochemical", "conditions": "purified human 20S proteasome, room temperature, one hour", "procedure": "as §1, §2"}, "[8]": {"biological_target": "20S Immunoproteasome peptidylglutamyl peptide hydrolyzing (PGPH) activity (Homo sapiens (Human), UniProt P28065+P40306)", "experiment": "20S immunoproteasome PGPH activity inhibition, fluorogenic substrate Z-Leu-Leu-Glu-AMC", "assay_type": "biochemical", "conditions": "purified human 20S proteasome, room temperature, one hour", "procedure": "as §1, §2"}, "[9]": {"system": "T-L activity of the 20S proteasome in blood samples", "experiment": "Inhibition of proteasome T-L activity in blood samples from dosed Balb/c mice", "assay_type": "in vivo", "conditions": "intravenous 10 mg/kg or oral gavage 30 mg/kg (route not given), one hour after dosing, vs vehicle", "procedure": "as §3, §4"}, "[10]": {"conditions": "form of 20S proteasome not stated, 'below about'"}, "[11]": {"conditions": "purified human 20S proteasome, room temperature, one hour, read-out: Proteasome inhibition IC50 (nM) Constitutive 20S proteasome CT-L"}, "[12]": {"conditions": "purified human 20S proteasome, room temperature, one hour, read-out: Proteasome inhibition IC50 (nM) Constitutive 20S proteasome T-L"}}, "note": "Like-named read-outs stand apart in the source and are kept apart here.", "data": [{"smiles": "COC[C@H](NC(=O)[C@H](CCc1ccccc1)NC(=O)c1cc(CN2CCOCC2)on1)C(=O)N[C@@H](Cc1ccccc1)C(=O)[C@@]1(C)CO1", "note": "[CX13-603]", "values": [{"measurement": "IC50", "setting": "[1]; [10]", "value": "< 50", "unit": "nM"}, {"measurement": "IC50", "setting": "[1]; [11]", "value": 14.2, "unit": "nM"}, {"measurement": "IC50", "setting": "[2]; [12]", "value": "> 20000", "unit": "nM"}, {"measurement": "IC50", "setting": "[3]", "value": "> 20000", "unit": "nM"}, {"measurement": "inhibition of CT-L activity in blood samples", "setting": "[4]; oral gavage at 30 mg/kg", "value": "inhibited the CT-L activity in blood samples"}, {"measurement": "IC50", "setting": "[5]", "value": "> 20000", "unit": "nM"}, {"measurement": "solubility at 24 h", "setting": "[6]", "value": 520, "unit": "µg/mL"}, {"measurement": "IC50", "setting": "[7]", "value": 11.1, "unit": "nM"}, {"measurement": "IC50", "setting": "[8]", "value": "> 20000", "unit": "nM"}]}, {"smiles": "COC[C@H](NC(=O)[C@H](CCc1ccccc1)NC(=O)Cc1ccc(CN2CCOCC2)cc1)C(=O)N[C@@H](Cc1ccccc1)C(=O)[C@@]1(C)CO1", "note": "[CX13-608]", "values": [{"measurement": "inhibition of T-L activity in blood samples", "setting": "[9]", "value": "inhibited both CT-L and T-L activity"}, {"measurement": "IC50", "setting": "[1]; [10]", "value": "< 5", "unit": "nM"}, {"measurement": "IC50", "setting": "[1]; [11]", "value": 3.73, "unit": "nM"}, {"measurement": "IC50", "setting": "[2]; form of 20S proteasome not stated, 'below about', read-out: concentration showing inhibition of T-L activity of the 20S proteasome", "value": "< 500", "unit": "nM"}, {"measurement": "IC50", "setting": "[2]; [12]", "value": 490, "unit": "nM"}, {"measurement": "IC50", "setting": "[3]", "value": "> 20000", "unit": "nM"}, {"measurement": "inhibition of CT-L activity in blood samples", "setting": "[4]; intravenous 10 mg/kg or oral gavage 30 mg/kg (route not given)", "value": "inhibited both CT-L and T-L activity"}, {"measurement": "IC50", "setting": "[5]", "value": 542, "unit": "nM"}, {"measurement": "solubility at 24 h", "setting": "[6]", "value": 1430, "unit": "µg/mL"}, {"measurement": "IC50", "setting": "[7]", "value": 4.26, "unit": "nM"}, {"measurement": "IC50", "setting": "[8]", "value": "> 20000", "unit": "nM"}]}]}
